Entries after “also recorded” stand apart in the source; their conditions may differ.
Columns and labels:
[1] = test system: OCI-AML2, K562 human leukemia cells and MDAY-D2 murine leukemia cells; format: in vivo; conditions: CPX 25 mg/kg daily by oral gavage; all 3 mouse models
Experimental: MDAY-D2 (MDAY) murine leukemia cells (5×10^5) were injected intra-peritoneal into NOD/SCID mice (Ontario Cancer Institute, Toronto, ON), OCI-AML2 and K562 cells (2×10^6) were injected subcutaneously into both flanks of sub-lethally irradiated (3.5 Gy) NOD/SCID mice. Mice were then treated daily by oral gavages with CPX (25 mg/kg) in PBS or vehicle control. Tumour volume (tumour length×width^2×0.5236) (Mol Cancer Ther. 2004; 3:1239-1248) was measured weekly using calipers. Eight (MDAY-D2), 11 (OCI-AML2) or 30 (K562) days after injection of cells, mice were sacrificed, and the volume and weight of the tumours was measured. All animal studies were carried out according to the regulations of the Canadian Council on Animal Care and with the approval of the local ethics review board.
Given the effects in leukemia cells lines, the effects of oral CPX was evaluated in 3 mouse models of leukemia. Sublethally irradiated NOD-SCID mice were injected subcutaneously with OCI-AML2 or K562 human leukemia cells or intraperitoneally with MDAY-D2 murine leukemia cells. […].

leukemia cell lines = assay: MTS cell viability assay in leukemia/lymphoma cell lines; format: cell-based; conditions: increasing concentrations, 72 hours
Experimental: Leukemia (HL-60, RSV411, k562, Jurkat, U937), LYMPHOMA (MDAY-D2), solid tumour cell lines (PPC-1, HeLa, OVCAR-3, DU-145, HT-29) and GMO5757 human lung fibroblasts were cultured in RPMI 1640 medium. HepG2 hepatoma cells and MRC5 human lung fibroblasts were grown in Dulbecco modified Eagle medium. OCI-M2, OCI-AML2 and NB4 leukemia cell lines and OPM2, KMS11, LP1, UTMC2, KSM18 and OCIMy5 myeloma cell lines were maintained in Iscove Modified Dulbecco Medium. LF1 human lung fibroblasts were maintained in HAM medium. All media were supplemented with 10% fetal calf serum, 100 μg/mL of penicillin, and 100 units/mL of streptomycin (all from Hyclone, Logan, Utah). The cells were incubated at 37° C. in a humidified air atmosphere supplemented with 5% CO2.
The CellTiter96 aqueous nonradioactive (MTS) assay was used to measure cell viability according to the manufacturer's instructions (Promega). Propidium iodide (PI) staining was used according to manufacturer's instructions (Biovision, Mountain view, Calif.).
From this chemical screen, the antimicrobial CPX was identified. CPX is currently used for the topical treatment of cutaneous fungal infections. As an anti-fungal agent, the mechanism of action of CPX is not well understood, but appears related to binding intracellular iron and inhibiting iron containing enzymes. […] 72 hours after incubation, cell viability was measured by the MTS assay. […]

survivin promoter = assay: Survivin promoter luciferase reporter screen in HeLa cells; format: cell-based, human; conditions: 5 μM, 24 hours
Description: The full-length survivin promoter (−1059 upstream of the initiating ATG) (NIEHS-SNPs, Environmental Genome Project, NIEHS ES15478, Department of Genome Sciences, Seattle, Wash.) was isolated from HeLa genomic DNA using the forward primer 5′-[…]-3′ (SEQ ID NO:1) and the reverse primer 5′-[…]-3′ (SEQ ID NO:2).
The promoter was sub-cloned into the GL4.20 firefly luciferase reporter vector (Promega Corporation, Madison, Wis.). Clones were sequence-verified for orientation and integrity using a CEQ 8000 Genetic Analysis System (Beckman, Mississauga, ON, Canada). […]
(A) HeLa cells stably overexpressing the survivin promoter driving luciferase (15000 cells/well) were plated in 96-well plates. […] After incubation, survivin promoter activity was assessed by the luciferase assay described below. […]
Luciferase activity was measured according to the manufacturer's instructions and as previously described (Promega, Madison, Wis.) (Mao Blood). […] After 10-minutes incubation, an equal volume of Bright-Glo Luciferase substrate (Promega) was added, and the luminescence signal was detected with a 96-well Luminoskan luminescence plate reader (Thermo Fisher Scientific, Waltham, Mass.) with 5-seconds integration time. […]

[2] = test system: survivin, Cyclin D1, YY1 and FTII-D; assay: Immunoblotting of protein expression after CPX treatment; format: cell-based; conditions: prior to the onset of cell death
Experimental: (§1) FIG. 5: Cell cycle arrest, survivin decrease and p53 increase precede CPX induced cell death. A) HeLa, PPC-1 and MDAY-D2 cells were treated with 5 μM CPX or buffer control. Eighteen hours after incubation, cell cycle was analyzed by PI staining and Flow cytometry. B) NB4 and OCI-M2 cell lines were incubated with CPX (5 μM) for 48 hours. After incubation cells were harvested and nuclear proteins were isolated. Levels of p53 and the nuclear protein glucocorticoid receptor (GR) were measured by immunoblotting. C) Solid tumor (OVCAR3, HT-29, HepG2, DU145, HeLa) and leukemia (OCI-M2, OCI-AML2, NB4, HL-6) cell lines were treated with CPX (2.5 μM) or buffer control for 48 hours. After incubation, total protein was isolated. Levels of survivin and GAPDH were measured by immunoblotting.
Total cell lysates were prepared from cells. […] Protein concentrations were measured by the Bradford assay (Anal Biochem. 1996; 236:221-228). […]
Membranes were probed with polyclonal rabbit anti-human survivin (1 μg/mL) (NOVUS), monoclonal mouse anti-human p53 (0.5 μg/mL), polyclonal rabbit anti-human GR (0.5 μg/mL) both from (Santa Cruz Biotechnologies, CA), or with mouse anti-human GADPH (Trevigen, Gaithersburg, Md.). […] Detection was performed by the enhanced chemical luminescence method (Pierce, Rockford, Ill.).

[3] = test system: HeLa, PPC-1 and MDAY-D2 cells; assay: Cell cycle analysis by PI staining and flow cytometry; format: cell-based; conditions: 5 μM CPX; eighteen hours; prior to the onset of cell death
Experimental: as §1
Cell-cycle analysis was performed as previously described (Blood 112(3):760). Briefly, cells were harvested, washed with cold PBS, re-suspended in 70% cold ethanol, and incubated overnight at −20° C. Cells were then treated with 100 ng/mL of DNase-free RNase (Invitrogen, Carlsbad, Calif.) at 37° C. for 30 minutes, washed with cold PBS, and re-suspended in PBS with 50 μg/mL of PI (Sigma). DNA content was analyzed by flow cytometry (FACSCalibur; BD Biosciences, San Jose, Calif.).

## Cc1cc(C2CCCCC2)n(O)c(=O)c1 [CPX, 6-Cyclohexyl-1-hydroxy-4-methyl-2(1H)-pyridone]
[1]
  decrease in tumor volume compared to control: up to 65%
  decrease in tumor weight compared to control: up to 65%
Leukemia cell lines
  effect on cell viability: decreased cell viability in all leukemia cell lines tested; also recorded: decreased cell viability in all leukemia and lymphoma cell lines
Survivin promoter
  inhibition of survivin transactivation (luciferase expression): inhibitor of survivin transactivation
[2]
  effect on protein expression: down-regulated the expression of survivin, Cyclin D1, and the transcription factors YY1 and FTII-D
[3]
  cell cycle effect: arrested cells in the G1/S phase of the cell cycle

From patent US20110212176A1, “CICLOPIROX AND CYTARABINE FOR THE TREATMENT OF LEUKEMIC DISORDERS” (priority 2008, published 2011)
